Measured values reported in ChEMBL document CHEMBL1158462, “Recent advances in the development of polyamine analogues as antitumor agents” (J Med Chem, 2009).
Values belong to the compound of their own block, whether it stands above or below them.

What was measured:
[1] = system: L1210; assay: Antitumor activity against mouse L1210 cells; type: functional, cell-based
[2] = system: Malme-3M; assay: Antitumor activity against human MALME-3M cells; type: functional, cell-based
[3] = cells; details: Mus musculus, ML1
Description: Antitumor activity against mouse ML1 cells

[4] = system: NCI-H157; assay: Antitumor activity against human NCI-H157 cells by MTT assay; type: functional, cell-based
[5] = system: MCF7; assay: cells; type: functional, cell-based; details: Homo sapiens
Description: Antitumor activity against human MCF7 cells

[6] = system: MCF-10A; assay: cells; type: functional, cell-based; details: Homo sapiens
Description: Antitumor activity against human MCF10A cells

[7] = biological target: Histone deacetylase (Homo sapiens) (UniProt Q13547+O15379+Q9UBN7+Q92769+Q9UQL6+Q8WUI4+Q9BY41+Q96DB2+P56524+Q9UKV0+Q969S8); details: HeLa, at 5 µM
Description: Inhibition of HDAC from human HeLa cells assessed as of histone H3 acetylation at 5 uM

[8] = system: RKO; assay: Induction of SFRP4 expression in human RKO cells at 1 uM; type: functional
[9] = system: RKO; assay: Induction of SFRP5 expression in human RKO cells at 1 uM; type: functional
[10] = system: RKO; assay: Induction of H3K4me2 expression in human RKO cells at 1 uM; type: functional
[11] = biological target: Lysine-specific histone demethylase 1A (Homo sapiens) (UniProt O60341); details: 1 uM
Description: Inhibition of LSD1 at 1 uM

[12] = system: A549; assay: Antitumor activity against human A549 cells; type: functional, cell-based
[13] = Antitumor activity against human H82 cells; type: functional, cell-based; details: NCI-H82
[14] = system: NCI-H69; assay: Antitumor activity against human H69 cells; type: functional, cell-based
[15] = system: DU-145; assay: Antitumor activity against human DU145 cells; type: functional, cell-based
[16] = system: LNCaP; assay: Antitumor activity against human LNCAP cells; type: functional, cell-based
[17] = system: DuPro; assay: Antitumor activity against human DuPro cells; type: functional, cell-based
[18] = system: PC-3; assay: cells; details: Homo sapiens
Description: Antitumor activity against human PC3 cells

[19] = system: HT-29; assay: Antitumor activity against human HT-29 cells; type: functional, cell-based
[20] = Antitumor activity against human U251MG cells; type: functional, cell-based; details: U-251
[21] = system: A549; assay: Antitumor activity against human A549 cells xenografted nu/nu Fox Chase mouse assessed as reduction in tumor growth at 75 mg/kg; type: functional; parameters: scale not given: the % may be the effect or the level left
[22] = system: A549; assay: Antitumor activity against human A549 cells xenografted nu/nu Fox Chase mouse assessed as reduction in tumor growth at 125 mg/kg; type: functional; parameters: scale not given: the % may be the effect or the level left
[23] = system: HeLa; assay: Antiproliferative activity against human HeLa cells; type: functional, cell-based

Compound: CC(/C=C/C(=O)NO)=C\[C@@H](C)C(=O)c1ccc(N(C)C)cc1 [TRICHOSTATIN]
IC50 [3]: 250 nM

Compound: COc1cc(C(C)(C)C)cc(C(C)(C)C)c1CNCCCNCCCNCCCNCc1c(OC)cc(C(C)(C)C)cc1C(C)(C)C
IC50 [4]: 4000 nM

Compound: Nc1ccccc1NC(=O)c1ccc(CNC(=O)CCCCCCCC(=O)NCCCNCCCCNCCC(c2ccccc2)c2ccccc2)cc1
IC50 [5]: > 30000 nM
IC50 [6]: > 30000 nM
inhibition [7]: 47%

Compound: c1ccc(C(CCNCCCCNCCCNCCC(c2ccccc2)c2ccccc2)c2ccccc2)cc1
IC50 [4]: 4600 nM

Compound: CC(C)(C)c1ccc(CNCCCCNC(=O)CCCCCCC(=O)c2ncco2)cc1
IC50 [5]: 27000 nM
IC50 [6]: > 30000 nM
inhibition [7]: 43.7%

Compound: c1ccc(-c2ccccc2CNCCCNCCCCNCCCNCc2ccccc2-c2ccccc2)cc1
IC50 [4]: 4100 nM

Compound: CCSCCNCCCNCCCNCCCNCCSCC
IC50 [4]: 1400 nM

Compound: N=C(NCCCNCCCCCCCNCCCNC(=N)NC(=N)NCCC(c1ccccc1)c1ccccc1)NC(=N)NCCC(c1ccccc1)c1ccccc1
Activity [8]: 20%
Activity [9]: 20%
Activity [10]: 20%
inhibition [11]: 90.9%

Compound: CCNCCCCNCCCCNCCCCNCCCCNC/C=C/CNCCCCNCCCCNCCCCNCCCCNCC
IC50 [15]: 90 nM
IC50 [16]: 90 nM
IC50 [17]: 90 nM
IC50 [18]: 90 nM

Compound: c1ccc(-c2ccccc2CNCCCNCCCNCCCNCc2ccccc2-c2ccccc2)cc1
IC50 [4]: 4200 nM

Compound: CCNC/C=C\CNCCCCNCCCCNC/C=C\CNCC
IC50 [15]: 140 nM
IC50 [16]: 140 nM
IC50 [17]: 140 nM
IC50 [18]: 140 nM

Compound: Nc1ccccc1NC(=O)c1ccc(CNC(=O)CCCCCCC(=O)NCCCNCCCCNCCC(c2ccccc2)c2ccccc2)cc1
IC50 [5]: > 30000 nM
IC50 [6]: > 30000 nM

Compound: CCNCCCNCCCNCCCNCC1CCCCCC1
IC50 [4]: 700 nM
IC50 [13]: 700 nM

Compound: Cc1ccc(CNCCCCNC(=O)CCCCCC(=O)NCc2ccc(C(=O)Nc3ccccc3N)cc2)cc1
IC50 [5]: 900 nM
IC50 [6]: 24000 nM
inhibition [7]: 48.1%

Compound: Nc1ccccc1NC(=O)c1ccc(CNC(=O)OCc2cccnc2)cc1 [ENTINOSTAT]
IC50 [3]: 750 nM

Compound: c1ccc(C(CCNCCCNCCCNCCCNCCC(c2ccccc2)c2ccccc2)c2ccccc2)cc1
IC50 [4]: 4100 nM

Compound: CCNCCCNCCCNCCCNCCSc1ccccc1
IC50 [4]: 300 nM

Compound: Cc1cccc(NC(=O)c2ccc(CNC(=O)CCCCCCC(=O)NCCCNCCCCNCCC(c3ccccc3)c3ccccc3)cc2)c1
IC50 [5]: > 30000 nM
IC50 [6]: > 30000 nM
inhibition [7]: 42.6%

Compound: c1ccc(CCc2ccccc2CNCCCCNCCCNCc2ccccc2CCc2ccccc2)cc1
IC50 [4]: 4200 nM

Compound: NCCCNCCCCCCCCNCCCN
IC50 [23]: 5000 nM

Now from value to compound, other results behind:

IC50 [1]: 200 nM
IC50 [2]: 200 nM
Compound: CCNCCCNCCCNCCCNCC [BIS(ETHYL)NORSPERMINE]

IC50 [4]: 2200 nM
Compound: CCCCNCCCCNCCCCNCCCNCC

IC50 [4]: 300 nM
Compound: CCNCCCNCCCNCCCNCCSCC

IC50 [4]: 1700 nM
Compound: CCNCCCNCCCCNCCCNCCC(C)C

IC50 [12]: 900 nM
IC50 [4]: 1800 nM
IC50 [13]: 900 nM
IC50 [14]: 900 nM
Compound: CCNCCCNCCCCNCCCNCCC(C)(C)C

IC50 [15]: ≥ 100 nM
IC50 [12]: ≥ 100 nM
IC50 [19]: ≥ 100 nM
IC50 [20]: ≥ 100 nM
IC50 [5]: ≥ 100 nM
IC50 [18]: ≥ 100 nM
Compound: CCNCCCNCC1CCC1CNCCCNCC (stereo not given)

IC50 [1]: 600 nM
Compound: CCNCC[C@@H](O)CNCCCCNC[C@H](O)CCNCC

IC50 [4]: 800 nM
Compound: CCNCCCNCCCNCCCNCC(CC)CC

IC50 [4]: 700 nM
Compound: C=C(C)CNCCCNCCCNCCCNCC

IC50 [12]: 700 nM
IC50 [4]: 2200 nM
IC50 [13]: 700 nM
IC50 [14]: 700 nM
Compound: CCNCCCNCCCNCCCNC[C@H](C)CO
Activity [21]: 65%
Activity [22]: 65%

IC50 [15]: ≥ 300 nM
IC50 [12]: ≥ 300 nM
IC50 [19]: ≥ 300 nM
IC50 [20]: ≥ 300 nM
IC50 [5]: ≥ 300 nM
IC50 [18]: ≥ 300 nM
Compound: CCNCCCNCC1CC1CNCCCNCC (stereo not given)

IC50 [4]: 1400 nM
Compound: CCNCCCNCCCNCCCNC(C)C
